Series [1] deals with BaF3-EGFR^L858R/T790M/C797S cells. The series is described as follows: BaF3 cell proliferation inhibition experiment (CCK-8). The class given is cell-based. Conditions: Ba/F3 EGFR-L858R, 72 hours. An excerpt: BaF3 cell proliferation inhibition experiment: The compounds of the present invention have excellent inhibitory activity against the proliferation of BaF3-EGFR^L858R/T790M/C797S cells
(§1) A. Cell line: BaF3 cells with stable overexpression of wild-type genes are named BaF3-EGFR^WT, and BaF3 cells with stable overexpression of EGFR^L858R/T790M/C797S EGFR^del19/T790M/C797S EGFR^L858R/C797S and EGFR^del19/C797S mutant genes are named BaF3-EGFR^L858R/T790M/C797S BaF3-EGFR^del19/T790M/C797S BaF3-EGFR^L858R/C797S and BaF3-EGFR^del19/C797S cells, respectively. Mediums:
(§2) a) The medium was preheated in a 37° C. water bath.
(§3) b) The cryopreservation tube was taken from the liquid nitrogen tank, quickly placed in a 37° C. water bath, and melted completely within 1 minute.
(§4) c) The cell suspension was transferred to a 15 mL centrifuge tube containing a 10 mL medium and centrifuged at 1000 rpm for 4 minutes.
(§5) d) The supernatant was discarded, the cells were resuspended in a 1 mL medium and transferred to a […] culture dish containing a 10 mL medium, 20% serum and 50 ng/mL EGF were administered to the first-generation medium, and culture was conducted in a 37° C. and 5% CO2 incubator.
(§6) b) The cells in the culture dish were blown evenly with a 5 mL pipette, and 500 μL of the cells were pipetted out to be inoculated into a new […] culture dish and cultured in a 37° C. and 5% CO2 incubator.
(§7) a) The compound to be tested (10 mM stock solution) was diluted with 100% DMSO to 1 mM, and diluted with a culture solution in a 24-well plate to prepare of a working solution of 2 μM concentration.
(§8) b) The 2 μM working solution was diluted with a triple dilution method to obtain working solutions with approximate concentrations of 2 μM, 600 nM, 200 nM, 60 nM, and 20 nM.
(§9) a) The cells at the logarithmic growth phase were centrifuged at 1000 rpm for 4 minutes, resuspended with a medium (containing 10% serum and 50 ng/mL EGF), and counted.
(§10) b) The cells were inoculated into a 96-well plate with a cell density of 4000 cells/well, and placed in a 37° C. and 5% CO2 incubator for culture for 12 hours.
(§11) a) The prepared compound was added to a 96-well plate, with 100 μL per well. The final concentrations were 1 μM, 300 nM, 100 nM, 30 nM, 10 nM, and 0 nM, and the final concentration of DMSO was 0.2%. A medium served as a blank control.
(§12) b) The cells were placed in 37° C. and 5% CO2 incubator for culture for 72 hours.
(§13) (5) Cell Viability Testing
(§14) a) The 96-well cell culture plate was taken out, and 20 μL of a CCK-8 reagent (Cell Counting Kit-8, Topscience, Catalog No. C0005) was added in the dark.
(§15) b) Mixing well was conducted on a horizontal shaking table at a room temperature at 100 rpm for 5 minutes.
(§16) c) The culture plate was placed in a 37° C. constant-temperature incubator for incubation.
d) Starting from the addition of the CCK-8, the absorbance at 450 nm was read using the TECAN microplate reader at 1 hour, 2 hours, and 3 hours, respectively.
(§17) The data was analyzed using GraphPad Prism 8.0 software to obtain a fitted curve of activity of the compounds. The IC50 of the compounds was fitted from nonlinear regression equation.

In series [2] the target is EGFR^L858R/T790M/C797S kinase (Homo sapiens (Human), UniProt P00533, C797S/L858R/T790M). The series can be described thus: EGFR^L858R/T790M/C797S kinase inhibitory activity experiment. The class given is biochemical. As to conditions: in vitro. As to the method:
EGFRL^858R/T790M/C797S kinase inhibitory activity experiment: The compounds of the present invention have excellent in-vitro inhibitory activity against EGFR^L858R/T790M/C797S kinase
• Centrifuge (manufacturer: Eppendorf, model: 5430) • Microplate reader (manufacturer: Perkin Elmer, model: Caliper EZ ReaderII) • Echo 550 (manufacturer: Labcyte, model: Echo 550) • Experimental Method • Compound preparation: • A 10 mM storage solution was prepared.
(1) 1×Kinase buffer was prepared.
(2) Preparation of concentration gradient of compound: The tested compound has a test concentration starting from 1 μM, diluted 10 times, with 10 concentrations, and subjected to single-well or multi-well detection. The compound was diluted to a 100% DMSO solution with a final concentration of 100 times in a 384 source plate. […] of the compound at a final concentration of 100 times was transferred to the target plate 384-well-plate using the pipette Echo 550.
(3) A kinase solution with a final concentration of 2.5 times was prepared using 1× Kinase buffer.
(4) 10 μL of the kinase solution with the final concentration of 2.5 times was added to a compound well and a positive control well, respectively; 10 μL of 1×Kinase buffer was added to a negative control well.
(5) Centrifugation was conducted at 1000 rpm for 30 seconds, and the reaction plate was shaken and mixed well, and incubated at a room temperature for 10 minutes.
(6) A mixed solution of ATP with a final concentration of 5/3 times and Kinase substrate 22 was prepared using 1×Kinase buffer.
(7) A mixed solution of 15 μL of ATP with a final concentration of 5/3 times and a substrate was added for initial reaction.
(8) The 384-well-plate was centrifuged at 1000 rpm for 30 seconds, shaken and mixed well, and incubated at a room temperature for 60 minutes.
(9) 30 μL of a termination detection solution was added to stop the kinase reaction. Centrifugation was conducted at 1000 rpm for 30 seconds. Shaking and mixing well were conducted.
(10) The conversion rate was read using Caliper EZ Reader.
where Conversion %_sample is the conversion rate reading of the sample; Conversion %_min: the average value of negative control wells, representing the conversion rate reading of wells without enzyme activity; Conversion %_max: the average value of positive control wells, representing the conversion rate reading of wells without compound inhibition; % Inhibition represents the inhibition rate.
Fitting of Dose-Response Curve
Using the log value of concentration as the X-axis and the percentage inhibition rate as the Y-axis, the dose-response curve was fitted using the log(inhibitor) vs. response —Variable slope of the analysis software GraphPad Prism 5 to obtain the IC50 value of each compound on enzyme activity.

In the next series the test system is A431 cells. The series can be described thus: A431 cell proliferation inhibition (SRB). Conditions: Homo sapiens, A-431, wild-type EGFR, 72 hours. The class given is cell-based. As to the method: A431 cell proliferation inhibition: The compounds of the present invention have good selectivity to wild-type EGFR
as §2, §3, §4, §5, §6, §7, §8, §9, §10, §11, §12, §13
a) The cell supernatant was discarded, rinsed once with 1×PBS, and fixed with 10% trichloroacetic acid for 1 hour. The trichloroacetic acid was discarded, excess trichloroacetic acid was washed off with tap water, and the 96-well plate was dried in a 60° C. oven.
b) 70 μL of an SRB stain was added to each well of the dry 96-well plate for staining at a room temperature for 30 minutes. Excess SRB stain was washed off with 1% glacial acetic acid, and the 96-well plate was dried in a 60° C. oven.
c) SRB was dissolved with 100 μL of 10 mM Tris-base solution. The absorbance was detected at 540 nm ultraviolet absorption using the microplate reader. The data was analyzed.
as §17

The nature of series [3]: Detection of oral plasma exposure in rats. As to conditions: rat, SD rats, p.o. 10 mg/kg. The class given is in vivo. As to the method: Detection of oral plasma exposure in rats: The compounds of the present invention have good oral in-vivo exposure in rats
After a single dose of 10 mg/kg oral administration of the compound to be tested in SD rats, blood samples were collected at different time points.
Standard curve and quality control sample preparation processing: The mixed reserve solution of the compound to be tested was taken and diluted with 50% methanol water into standard working solutions containing respective compounds with concentrations of 20, 40, 100, 200, 400, 1000, 2000, 4000, 10000, and 20000 ng/mL, as well as 60, 600, and 16000 ng/mL quality control working solutions. […] of a blank matrix was taken. […] of the standard curve working solutions and the quality control working solutions were added to prepare standard curves containing respective compounds with concentrations of 1.00, 2.00, 5.00, 10.00, 20.00, 50.00, 100.00, 200.00, 500.00, and 1000.00 ng/mL, as well as quality control samples with concentrations of 3.00, 30.00, and 800.00 ng/mL, respectively. 400 μL of acetonitrile (containing internal standard Verpmil of 2 ng/mL) was added. After vortex oscillation at 700 rcf for 10 minutes, centrifugation was conducted at 3300 rcf at 4° C. for 10 minutes. The supernatant was taken for LC-MS/MS analysis.
Unknown sample preparation processing: 50 μL of the sample to be tested was taken. 400 μL of acetonitrile (containing internal standard Verpmil of 2 ng/mL) was added. After vortex oscillation at 700 rcf for 10 minutes, centrifugation was conducted at 3300 rcf and 4° C. for 10 minutes. The supernatant was taken for LC-MS/MS analysis.

Series [4] relates to BaF3-EGFR^del19/T790M/C797S cells. The series is described as follows: BaF3 cell proliferation inhibition experiment (CCK-8). The class given is cell-based. As to conditions: Ba/F3 EGFR-Del19/T790M/C797S; cell proliferation, 72 hours; read-out: BaF3-EGFR^del19 /T790M/C797S (IC50 nM). As for the experimental part:
as §1, §2, §3, §4, §5, §6, §7, §8, §9, §10, §11, §12, §13, §14, §15, §16, §17

Another series deals with BaF3-EGFR^WT cells. Described as above. As to conditions: Mus musculus, BaF3; cell proliferation, 72 hours; read-out: BaF3-EGFR^WT (IC50 nM). The class given is cell-based. As for the experimental part:
as §1, §2, §3, §4, §5, §6, §7, §8, §9, §10, §11, §12, §13, §14, §15, §16, §17

SMILES strings stand for the structures.

Chain of EGFR^L858R/T790M/C797S kinase (P00533 25-1210 T790M/C797S/L858R): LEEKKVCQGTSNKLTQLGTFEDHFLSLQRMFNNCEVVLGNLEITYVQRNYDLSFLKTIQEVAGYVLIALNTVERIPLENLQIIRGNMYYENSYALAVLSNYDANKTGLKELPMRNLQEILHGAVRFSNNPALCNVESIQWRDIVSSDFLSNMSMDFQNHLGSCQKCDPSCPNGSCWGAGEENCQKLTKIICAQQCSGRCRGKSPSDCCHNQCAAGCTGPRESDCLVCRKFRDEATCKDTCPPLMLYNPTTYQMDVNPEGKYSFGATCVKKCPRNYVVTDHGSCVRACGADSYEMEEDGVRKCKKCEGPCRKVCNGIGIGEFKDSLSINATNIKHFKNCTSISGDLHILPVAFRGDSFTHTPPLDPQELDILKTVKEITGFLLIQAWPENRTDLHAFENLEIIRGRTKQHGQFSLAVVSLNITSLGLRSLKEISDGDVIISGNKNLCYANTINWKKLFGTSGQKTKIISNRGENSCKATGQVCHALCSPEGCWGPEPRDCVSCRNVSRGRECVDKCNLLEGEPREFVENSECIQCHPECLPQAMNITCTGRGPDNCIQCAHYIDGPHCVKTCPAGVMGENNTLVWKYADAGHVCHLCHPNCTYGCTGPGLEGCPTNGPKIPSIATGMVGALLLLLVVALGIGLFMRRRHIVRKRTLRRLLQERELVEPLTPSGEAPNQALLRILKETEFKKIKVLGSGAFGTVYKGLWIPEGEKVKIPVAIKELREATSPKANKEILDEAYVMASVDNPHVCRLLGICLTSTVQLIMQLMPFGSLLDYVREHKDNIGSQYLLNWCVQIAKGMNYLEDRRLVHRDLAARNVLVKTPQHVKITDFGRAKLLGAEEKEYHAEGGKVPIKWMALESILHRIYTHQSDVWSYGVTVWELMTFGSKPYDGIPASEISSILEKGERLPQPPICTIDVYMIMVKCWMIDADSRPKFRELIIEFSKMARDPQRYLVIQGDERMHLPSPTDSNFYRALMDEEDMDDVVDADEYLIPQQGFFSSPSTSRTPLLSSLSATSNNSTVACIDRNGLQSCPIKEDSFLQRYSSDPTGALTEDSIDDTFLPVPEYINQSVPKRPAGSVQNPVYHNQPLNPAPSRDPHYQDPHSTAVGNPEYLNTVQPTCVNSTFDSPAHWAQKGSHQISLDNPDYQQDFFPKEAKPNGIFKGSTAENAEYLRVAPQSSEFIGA

For the molecule `COc1cc(N2CCC(N3CCN(C)CC3)CC2)c(C)cc1Nc1ncc(Cl)c(Nc2cc(C)c(C)cc2P(C)(C)=O)n1` [Compound 12, (2-((5-Chloro-2-((2-methoxy-5-methyl-4-(4-(4-methylpiperazin-1-yl)piperidin-1-yl)phenyl)amino)pyrimidin-4-yl)amino)-4,5-dimethylphenyl)dimethylphosphine oxide], the IC50 is 44.4 nM in series [1], 5.3 nM in series [2] and greater than 500 nM in the series on A431 cells. The maximum concentration (Cmax) in series [3] came to 1190 ng/mL.
For the molecule `CCc1cc(Nc2ncc(Cl)c(Nc3cc(C)c(C)cc3P(C)(C)=O)n2)c(OC)cc1N1CCC2(CC1)CC(N(C)C)C2` [Compound 17, (2-((5-Chloro-2-((4-(2-(dimethylamino)-7-azaspiro[3.5]non-7-yl)-5-ethyl-2-methoxyphenyl)amino)pyrimidin-4-yl)amino)-4,5-dimethylphenyl)dimethylphosphine oxide], the IC50 in series [1] is 45.4 nM; in series [2], 0.77 nM; with A431 cells, greater than 500 nM.
On to `CCc1cc(Nc2ncc(Cl)c(Nc3cccc(Cl)c3P(C)(C)=O)n2)c(OC)cc1N1CCC2(CC1)CC(N(C)C)C2` [Compound 19, (2-chloro-6-((5-chloro-2-((4-(2-(dimethylamino)-7-azaspiro[3.5]nonan-7-yl)-5-ethyl-2-methoxyphenyl)amino)pyrimidin-4-yl)amino)phenyl)dimethylphosphine oxide], for which the IC50 was 47.8 nM in series [1], 0.86 nM in series [2] and greater than 500 nM in the series with A431 cells.
For `COc1cc(N2CCC3(CC2)CC(N(C)C)C3)c(Cl)cc1Nc1ncc(Cl)c(Nc2ccc(C)c(C)c2P(C)(C)=O)n1` [Compound 21, (6-((5-chloro-2-((5-chloro-4-(2-(dimethylamino)-7-azaspiro[3.5]nonan-7-yl)-2-methoxyphenyl)amino)pyrimidin-4-yl)amino)-2,3-dimethylphenyl)dimethylphosphine oxide], the IC50 in series [1] was 33.3 nM; in series [2], 0.65 nM; in the series on A431 cells, greater than 500 nM.
As to `COc1cc(N2CCC3(CC2)CC(N(C)C)C3)c(C)cc1Nc1ncc(Cl)c(Nc2ccc(C)c(C)c2P(C)(C)=O)n1` [Compound 23, (6-((5-chloro-2-((4-(2-(dimethylamino)-7-azaspiro[3.5]nonan-7-yl)-2-methoxy-5-methylphenyl)amino)pyrimidin-4-yl)amino)-2,3-dimethylphenyl)dimethylphosphine oxide], the IC50 is 39 nM in series [1], 0.78 nM in series [2] and greater than 500 nM in the series on A431 cells.
Regarding `COc1cc(N2CC3(CCN(C)CC3)C2)c(C)cc1Nc1ncc(Cl)c(Nc2ccc(C)c(C)c2P(C)(C)=O)n1` [Compound 32], the IC50 in series [1] came to 55.4 nM; in series [2], 0.92 nM; in the series with A431 cells it was 962 nM.
On to `CCc1cc(Nc2ncc(Cl)c(Nc3ccc(C)c(C)c3P(C)(C)=O)n2)c(OC)cc1N1CCC2(CC1)CC(N1CCCC1)C2` [Compound 48, (6-((5-chloro-2-((5-ethyl-2-methoxy-4-(2-(pyrrolidin-1-yl)-7-azaspiro[3.5]nonan-7-yl)phenyl)amino)pyrimidin-4-yl)amino)-2,3-dimethylphenyl)dimethylphosphine oxide], for which the IC50 in series [2] was found to be 0.0629 nM; in series [4], 176 nM; in the series on BaF3-EGFR^WT cells it was 634 nM.
For `CCc1cc(Nc2ncc(Cl)c(Nc3ccc(C)c(C)c3P(C)(C)=O)n2)c(OC)cc1N1CCC2(CCN(C)CC2)CC1` [Compound 55, (6-((5-Chloro-2-((5-ethyl-2-methoxy-4-(9-methyl-3,9-diazaspiro[5.5]undecan-3-yl)phenyl)amino)pyrimidin-4-yl)amino)-2,3-dimethylphenyl)dimethylphosphine oxide], the IC50 is 48.6 nM in series [1], 0.297 nM in series [2] and 700 nM in the series on A431 cells.
